Test results taken from patent US20190076467A1, “ANTIVIRAL CONJUGATES OF P[…] AND ANTIVIRAL DRUG” (priority 2015, published 2019).

How the values were obtained:
Ebola virus = type: cell-based, Ebola Zaire
Measles = type: cell-based
[1] = cited from earlier work

| Structure (SMILES) | Effect on proliferation of Ebola virus (qRT-PCR cycle number) (Ebola virus) | Activity against measles infectivity (Measles) | pKa [1] |
| --- | --- | --- | --- |
| NC(=O)c1ncn([C@@H]2O[C@H](CO)[C@@H](O)[C@H]2O)n1 [Ribavirin] | no measurable effect | no activity | – |
| C=CC(=O)O [acrylic acid] | – | – | 4.5 |
| C=C(C)C(=O)O [methacrylic acid] | – | – | 6.5 |
